Patent publication US11998539B2, “Substituted aminoquinolones as DGKalpha inhibitors for immune activation” (Bayer Aktiengesellschaft, priority 2019, dated 2024)

biological target: DGKα (Homo sapiens (Human), UniProt P23743); assay: Human DGKα kinase activity inhibition assay (ADP-Glo); assay type: biochemical; settings: recombinant full-length human DGKα, 55 μM ATP, 7 μM 1,2-dioleoyl-sn-glycerol, read-out: IC50 values of examples in in vitro human DGKa kinase activity inhibition assays
Summary of the method: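 Activity was measured as ADP production, detected by luciferase luminescence after removal of unused ATP. The enzyme was baculovirus-expressed full-length human DGKα with a C-terminal FLAG tag. The substrate was 1,2-dioleoyl-sn-glycerol in detergent micelles, and compounds came from 100× DMSO solutions.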

Chain of DGKα (P23743 other isoform, or with tags, fused parts or gaps): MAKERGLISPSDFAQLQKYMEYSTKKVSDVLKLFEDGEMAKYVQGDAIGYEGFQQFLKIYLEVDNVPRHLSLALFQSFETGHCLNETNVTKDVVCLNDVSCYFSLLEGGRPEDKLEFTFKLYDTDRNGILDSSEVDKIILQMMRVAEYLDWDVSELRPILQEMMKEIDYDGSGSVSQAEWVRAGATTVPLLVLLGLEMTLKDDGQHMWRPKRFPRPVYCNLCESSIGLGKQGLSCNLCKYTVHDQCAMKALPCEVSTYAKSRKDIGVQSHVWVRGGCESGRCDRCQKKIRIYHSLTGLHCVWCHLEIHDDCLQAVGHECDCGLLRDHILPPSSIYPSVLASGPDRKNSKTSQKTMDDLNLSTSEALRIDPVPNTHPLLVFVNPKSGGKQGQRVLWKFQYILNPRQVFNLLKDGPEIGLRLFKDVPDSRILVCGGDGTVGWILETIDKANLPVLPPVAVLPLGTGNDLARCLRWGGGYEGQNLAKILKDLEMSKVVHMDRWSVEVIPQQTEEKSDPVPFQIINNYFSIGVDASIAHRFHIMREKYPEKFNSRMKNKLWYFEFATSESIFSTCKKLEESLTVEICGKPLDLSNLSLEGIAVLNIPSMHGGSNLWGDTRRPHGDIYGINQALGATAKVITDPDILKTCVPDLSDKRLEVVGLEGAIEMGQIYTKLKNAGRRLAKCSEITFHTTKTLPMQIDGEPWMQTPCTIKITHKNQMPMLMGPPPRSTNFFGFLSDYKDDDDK

First: Cc1ccccc1-c1noc(C2CCN(c3c(C(N)=O)c(=O)n(C)c4ccccc34)CC2)n1 [Example 458, 1-methyl-4-{4-[3-(2-methylphenyl)-1,2,4-oxadiazol-5-yl]piperidin-1-yl}-2-oxo-1,2-dihydroquinoline-3-carboxamide]
Second: Cc1ccc2oc(C3CCN(c4c(C(N)=O)c(=O)n(C)c5ccccc45)CC3)nc2c1 [Example 107, 1-methyl-4-[4-(5-methyl-1,3-benzoxazol-2-yl)piperidin-1-yl]-2-oxo-1,2-dihydroquinoline-3-carboxamide]
The IC50 of the first is 1.9-fold higher: 4.3 nM for the first, 2.3 nM for the second.

Going from `Cc1ccc2oc(C3CCN(c4c(C(N)=O)c(=O)n(C)c5cc([N+](=O)[O-])c(C)cc45)CC3)nc2c1` [Example 510, 1,6-dimethyl-4-[4-(5-methyl-1,3-benzoxazol-2-yl)piperidin-1-yl]-7-nitro-2-oxo-1,2-dihydroquinoline-3-carboxamide] to `Cc1ccc2oc(C3CCN(c4c(C(N)=O)c(=O)n(C)c5cc(O)c(Br)cc45)CC3)nc2c1` [Example 511, 6-bromo-7-hydroxy-1-methyl-4-[4-(5-methyl-1,3-benzoxazol-2-yl)piperidin-1-yl]-2-oxo-1,2-dihydroquinoline-3-carboxamide], the IC50 falls from 70 nM to 1.5 nM (47-fold).

First: Cc1ccc2nc(C3CCN(c4c(C(N)=O)c(=O)n(C)c5ccc(C)cc45)CC3)oc2c1 [Example 196, 1,6-dimethyl-4-[4-(6-methyl-1,3-benzoxazol-2-yl)piperidin-1-yl]-2-oxo-1,2-dihydroquinoline-3-carboxamide]
Second: Cc1ccc2oc(C3(C)CCN(c4c(C(N)=O)c(=O)n(C)c5cc(C)ccc45)CC3)nc2c1 [Example 312, 1,7-dimethyl-4-[4-methyl-4-(5-methyl-1,3-benzoxazol-2-yl)piperidin-1-yl]-2-oxo-1,2-dihydroquinoline-3-carboxamide]
The IC50 of the first is 4.4-fold higher: 3.1 nM for the first, 0.7 nM for the second. The second is the more potent here.

First: COc1ccc(C2CCN(c3c(C#N)c(=O)n(C)c4cc(C#N)ccc34)CC2)cc1 [Example 93, 4-[4-(4-methoxyphenyl)piperidin-1-yl]-1-methyl-2-oxo-1,2-dihydroquinoline-3,7-dicarbonitrile]
Second: Cn1c(=O)c(C#N)c(N2CCC(c3nc4ccccc4o3)CC2)c2cc(C#N)ccc21 [Example 175, 4-[4-(1,3-benzoxazol-2-yl)piperidin-1-yl]-1-methyl-2-oxo-1,2-dihydroquinoline-3,6-dicarbonitrile]
The IC50 of the first is 2.6-fold higher: 11 nM for the first, 4.2 nM for the second. The second is the more potent here.

Compared with `Cc1ccc2oc(C3CCN(c4c(C#N)c(=O)n(C)c5cc(Cl)ccc45)CC3)nc2c1` [Example 229, 7-chloro-1-methyl-4-[4-(5-methyl-1,3-benzoxazol-2-yl)piperidin-1-yl]-2-oxo-1,2-dihydroquinoline-3-carbonitrile], `Cc1ccc2oc(C3CCN(c4c(C#N)c(=O)n(C)c5cc(O)c(C)cc45)CC3)nc2c1` [Example 428, 7-hydroxy-1,6-dimethyl-4-[4-(5-methyl-1,3-benzoxazol-2-yl)piperidin-1-yl]-2-oxo-1,2-dihydroquinoline-3-carbonitrile] is 5-fold lower in IC50: 3 nM for the first, 0.6 nM for the second. The second is the more potent here.

`Cn1c(=O)c(C(N)=O)c(N2CCC(c3nnc(-c4cccc(Cl)c4)o3)CC2)c2ccccc21` [Example 464, 4-{4-[5-(3-chlorophenyl)-1,3,4-oxadiazol-2-yl]piperidin-1-yl}-1-methyl-2-oxo-1,2-dihydroquinoline-3-carboxamide] and `Cc1cccc(-c2nnc(C3CCN(c4c(C(N)=O)c(=O)n(C)c5ccccc45)CC3)o2)c1` [Example 463, 1-methyl-4-{4-[5-(3-methylphenyl)-1,3,4-oxadiazol-2-yl]piperidin-1-yl}-2-oxo-1,2-dihydroquinoline-3-carboxamide] are within 1.5-fold of each other in IC50: 123 nM for the first, 113 nM for the second.

Going from `Cn1c(=O)c(C#N)c(N2CCC(c3nc4ccccc4s3)CC2)c2ccccc21` [Example 12, 4-[4-(1,3-benzothiazol-2-yl)piperidin-1-yl]-1-methyl-2-oxo-1,2-dihydroquinoline-3-carbonitrile] to `Cn1c(=O)c(C#N)c(N2CCC(c3nc4ccc(Cl)nc4s3)CC2)c2ccccc21` [Example 19, 4-[4-(5-chloro[1,3]thiazolo[5,4-b]pyridin-2-yl)piperidin-1-yl]-1-methyl-2-oxo-1,2-dihydroquinoline-3-carbonitrile], the IC50 rises from 3.5 nM to 15 nM (4.3-fold).

Going from `Cc1ccc2oc(C3(C)CCN(c4c(C#N)c(=O)n(C)c5ccc(C)cc45)CC3)nc2c1` [Example 187, 1,6-dimethyl-4-[4-methyl-4-(5-methyl-1,3-benzoxazol-2-yl)piperidin-1-yl]-2-oxo-1,2-dihydroquinoline-3-carbonitrile] to `Cc1ccc2oc(C3(C)CCN(c4c(C#N)c(=O)n(C)c5ccccc45)CC3)nc2c1` [Example 288, 1-methyl-4-[4-methyl-4-(5-methyl-1,3-benzoxazol-2-yl)piperidin-1-yl]-2-oxo-1,2-dihydroquinoline-3-carbonitrile], the IC50 rises from 2 nM to 3.8 nM (1.9-fold).

First: COC1(c2cc3ccccc3s2)CCN(c2c(C#N)c(=O)n(C)c3ccccc23)CC1 [Example 341, 4-[4-(1-benzothiophen-2-yl)-4-methoxypiperidin-1-yl]-1-methyl-2-oxo-1,2-dihydroquinoline-3-carbonitrile]
Second: Cn1c(=O)c(C#N)c(N2CCC(C)(c3nc4cc(C(C)(C)C)ccc4o3)CC2)c2ccccc21 [Example 24, 4-[4-(5-tert-butyl-1,3-benzoxazol-2-yl)-4-methylpiperidin-1-yl]-1-methyl-2-oxo-1,2-dihydroquinoline-3-carbonitrile]
The IC50 of the first is 14-fold lower: 3.3 nM for the first, 45 nM for the second. The first is the more potent here.

Compared with `Cn1c(=O)c(C#N)c(N2CCC(c3cccc(S(C)(=O)=O)c3)CC2)c2ccccc21` [Example 80, 4-{4-[3-(methanesulfonyl)phenyl]piperidin-1-yl}-1-methyl-2-oxo-1,2-dihydroquinoline-3-carbonitrile], `Cc1cccc2nc(C3CCN(c4c(C#N)c(=O)n(C)c5ccccc45)CC3)oc12` [Example 15, 1-methyl-4-[4-(7-methyl-1,3-benzoxazol-2-yl)piperidin-1-yl]-2-oxo-1,2-dihydroquinoline-3-carbonitrile] is 30-fold lower in IC50: 333 nM for the first, 11 nM for the second.

Going from `Cc1cc2c(N3CCC(c4ccn(-c5ccccc5C)n4)CC3)c(C#N)c(=O)n(C)c2cc1Br` [Example 560, 7-bromo-1,6-dimethyl-4-{4-[1-(2-methylphenyl)-1H-pyrazol-3-yl]piperidin-1-yl}-2-oxo-1,2-dihydroquinoline-3-carbonitrile] to `Cc1cccc(-c2noc(C3CCN(c4c(C#N)c(=O)n(C)c5ccccc45)CC3)n2)c1` [Example 350, 1-methyl-4-{4-[3-(3-methylphenyl)-1,2,4-oxadiazol-5-yl]piperidin-1-yl}-2-oxo-1,2-dihydroquinoline-3-carbonitrile], the IC50 falls from 105 nM to 11 nM (9.5-fold). The second is the more potent here.

First: Cc1ccc2oc(C3(F)CCN(c4c(C(N)=O)c(=O)n(C)c5cc(OC6CCOC6)ccc45)CC3)nc2c1 (stereo not shown) [Example 509, 4-[4-fluoro-4-(5-methyl-1,3-benzoxazol-2-yl)piperidin-1-yl]-1-methyl-2-oxo-7-[(oxolan-3-yl)oxy]-1,2-dihydroquinoline-3-carboxamide]
Second: Cn1c(=O)c(C#N)c(N2CCC(C)(c3nc4ccccc4o3)CC2)c2cccc(Br)c21 [Example 156, 4-[4-(1,3-benzoxazol-2-yl)-4-methylpiperidin-1-yl]-8-bromo-1-methyl-2-oxo-1,2-dihydroquinoline-3-carbonitrile]
The IC50 of the first is 91-fold lower: 2 nM for the first, 182 nM for the second.

`Cn1c(=O)c(C#N)c(N2CCC(c3ccc(N4CCCC4=O)cc3)CC2)c2ccccc21` [Example 59] gave an IC50 of 23 nM.
